Laboratory results from article PMC11435438, “Cyclin-Dependent Kinase 8 Represents a Positive Regulator of Cytomegalovirus Replication and a Novel Host Target for Antiviral Strategies” (Pharmaceutics, 2024).

Key:
JCPyV strain Mad-4 = assay: JCPyV replication assay in COS-7 cells (qPCR); format: cell-based, human polyomavirus; conditions: Polyomavirus sp.; JCPyV strain Mad-4 in COS-7 cells, n = 1
Experimental: (§1) Primary human foreskin fibroblasts (HFFs; obtained from clinical samples at Children’s Hospital in Erlangen, Germany), guinea pig embryonic fibroblasts (GPEFs; generously provided by Mark R. Schleiss from the University of Minnesota in Minneapolis, MN, USA), and rat embryonic fibroblasts were cultivated in Eagle’s Minimal Essential Medium (MEM) supplemented with 1 × GlutaMAX™ (both from Thermo Fisher Scientific, Waltham, MA, USA), 10 µg/mL gentamicin, and 10% fetal bovine serum (FBS; Capricorn, Ebsdorfergrund, Germany). Human glioblastoma–astrocytoma cell line (U373) and mouse embryonic fibroblasts (MEFs), both obtained from ATCC (Manassas, VA, USA), and Vero cell sublineage 76 [26], were cultivated in Dulbecco’s modified Eagle’s medium (DMEM) supplemented with 1 × GlutaMAX™, 10 µg/mL gentamicin, and 10% fetal bovine serum. All cultured cells were maintained under the conditions of 37 °C temperature, 5% CO2, and 80% humidity. […]
(§2) A variety of antiherpesviral and non-herpesviral drug activities were assessed by the cell culture-based viral replication systems, as described elsewhere. […] After incubation at 37 °C for 3 days, iSLK.219 cells were fixed with 10% formalin, washed with PBS, and used for a quantitation of RFP reporter signal by PicoMD counting (ImageXpress® Pico device, Molecular Devices LLC, San Jose, CA, USA). […]

KSHV rKSHV.219-GFP = assay: KSHV lytic replication assay in iSLK.219 cells; format: cell-based, Kaposi's sarcoma-associated herpesvirus; conditions: Human gammaherpesvirus 8, read-out: EC50 KSHV
Experimental: as §1, with “humidity. The regular monitoring for the absence of mycoplasma contamination was conducted using Lonza™ Mycoalert™ (Thermo Fisher Scientific, Waltham, MA, USA). Cultured cell-based viral replication assays were performed by the use of the HCMV strain AD169 (variant U.K.), the recombinant HCMVs AD169-GFP expressing green fluorescent protein [27], TB40 IE2-YFP and TB40-FLuc expressing an IE2-YFP fusion protein or firefly luciferase (FLuc), and Merlin-GFP [31].” for “humidity.”
as §2

HCMV AD169-UL50-HA = assay: Virus entry analysis, pre-post-incubation versus post-incubation (Western blot); format: cell-based, human cytomegalovirus; conditions: CCT 5 nM and 15 nM, HFFs, MOI 0.01, 7 d p.i.
Experimental: (§3) Western blot (Wb) analyses were performed as previously described using total lysates prepared from infected and mock-infected HFFs. For this purpose, HFFs were seeded at 3 × 10^5 cells/6-well and used for infection with HCMV AD169, or other viruses as indicated, then treated with compounds or solvent control. At the given time points of infection, the total lysates were prepared and used for separation on standard SDS-PAGE/Wb procedures. For Wb staining, antibodies specific for CDK8 (A302-501A, Bethyl Laboratories, Montgomery, TX, USA); viral proteins such as mAb-IE1, mAb-UL44, mAb-pp28, and mAb-MCP (kindly provided by S. Jonjic and T. Lenac Rovis, Rijeka, Croatia); as well as mAb-β-actin as a house-keeping protein and loading control (A5441, Sigma Aldrich, St. Louis, MO, USA) were used, followed by incubation and staining with the appropriate HRP-conjugated secondary antibodies.

HCMV AD169 = assay: Western blot analysis of HCMV protein expression in infected HFFs; format: cell-based, human cytomegalovirus; conditions: 30 nM, HCMV AD169 MOI 0.1, 5 d and 7 d p.i.
Experimental: as §3

Row | SMILES | EC50 (JCPyV strain Mad-4) [nM] | EC50 (KSHV rKSHV.219-GFP) [nM] | effect at the stage of virus entry (HCMV AD169-UL50-HA) | viral late (L) protein level (pp28), Western blot (HCMV AD169)
1 | CN(C)C(=O)Cn1cc(-c2ccc(-c3cncc4ccccc34)cc2)cn1 [BI-1347] | 860 ± 1550 | 310 ± 610 | – | –
2 | Cn1ncc2cc(-c3cnc(N)c(Cl)c3N3CCC4(CCNC4=O)CC3)ccc21 [CCT-151921] | 3670 ± 3000 | 300 | does not act at the stage of virus entry | complete inhibition
3 | Cc1n[nH]c2ncc(C(=O)N3CCC[C@H]3c3ccc(Cl)cc3)cc12 [MSC-2530818] | – | > 40000 | – | –
